From US20040106578A1, “Fungicidal compositions based on pyridylmethylbenzamide derivatives and at least one complex III inhibiting compound” (priority 2001, published 2004) come the findings set out here.

In the assay the test system is Plasmopara viticola. Nature of the assay: Test of a composition against vine downy mildew, preventive action, on grapevine plants. Type of assay: in vivo. The conditions noted are these: grapevine var. Chardonnay sprayed 3 days before inoculation, evaluated 7 days after contamination, Abbott formula, untreated control 90% sporulated surface. On the procedure: Test of a Composition Against Vine Downy Mildew (Plasmopara Viticola; Preventive Action)
Grapevine plants are grown (var. Chardonnay) on sandy soil in plastic pots, with one plant per pot. The plants which are two months old (6 to 7 developed leaves) are sprayed with compound (I) and compound (II), either alone, or as a mixture.
The fungicidal active ingredients, either alone, or as a mixture, are applied at a dose equivalent to 500 litres/ha.
The compound (I)/compound (II) ratio studied is 1/2.
Three days after the treatment, each plant is inoculated by spraying an aqueous suspension of Plasmopara viticola sporangia obtained from contaminated leaves. The sporangium concentration is about 100 000 units per ml.
After contamination, the plants are incubated for two days at 18° C. under a saturated atmosphere, and then for 5 days at about 20° C. with a relative humidity of 90-100%.
Seven days after the contamination, the symptoms are evaluated in terms of underside surface of the leaves which are infected, compared with the untreated but contaminated plants.
The efficacy of the treatment is calculated using the following Abbott formula: [formula]
The concentrations of the fungicides, alone or as a mixture, giving 50%, 70% or 90% efficacy for each component, in the appropriate test, are determined based on the dose/response sigmoid curve model and their corresponding confidence intervals. […]

Turning to `O=C(NCc1ncc(C(F)(F)F)cc1Cl)c1c(Cl)cccc1Cl` [Compound (Ia), 2,6-dichloro-N-{[3-chloro-5-(trifluoromethyl)-2-pyridinyl]methyl}benzamide], for the setting “5 mg/l”, the “Efficacy (%)” value is listed as 40%.
Consider `CSC1=N[C@@](C)(c2ccccc2)C(=O)N1Nc1ccccc1` [Fenamidone, (S)-1-anilino-4-methyl-2-methylthio-4-phenylimidazolin-5-one], for which the “Efficacy (%)” value (10 mg/l) is 72%.
